Measured values from patent US8871929B2, “Fused-imidazoyl compounds useful as antimicrobial agents” (Merck Sharp & Dohme Corp., priority 2010, dated 2014).
≈ marks a conversion by molar mass, not a printed value.

System: Staphylococcus aureus ATCC29213
Experiment: Susceptibility testing (MIC determination), broth microdilution
Assay type: cell-based
Conditions: Mueller Hinton broth, 96-well plate, overnight incubation at 35° C., read-out: MIC Staph. aureus ATCC-29213
Procedure: Compounds useful in the method of the invention were investigated for their utility as antimicrobial agents in the following assay. Susceptibility testing (MIC determinations) was performed using the standard broth microdilution methodology precisely as described in the Clinical Laboratory Standards Institute Document M7-A6; Methods for Dilution Antimicrobial Susceptibility Tests for Bacteria That Grow Aerobically; […] To perform the test, a series of 0.1 ml media in a 96-well plate is prepared with Mueller Hinton broth to which various concentrations of the test compound are added. The media are then inoculated with a standardized suspension of the test organism, Staphylococcus aureus ATCC29213. After overnight incubation at 35° C., the tests are examined and the minimal inhibitory concentration (MIC) is determined. MIC is defined as the lowest concentration of an antimicrobial agent that prevents visible growth of a microorganism in the broth microdilution susceptibility test

COC(=O)c1ccn2c(NCC(=O)N3CCN(c4c(Cl)cncc4Cl)CC3)c(-c3ccc(N4CCOCC4)cc3)nc2c1 [Compound 84]
MIC: 0.125 µg/mL (≈ 0.2 µM)
